Assay results taken from patent US9796733B2, “Imidazo-pyrazine derivatives useful as soluble guanylate cyclase activators” (Merck Sharp & Dohme Corp., priority 2014, dated 2017).
pEC50: −log10 of the molar value.

Columns and labels:
sGC α1/β1 heterodimer = target: T1, sGC α1/β1 heterodimer (Homo sapiens, UniProt Q02108+Q02153); assay: Cell-based sGC functional assay (CASA assay): cGMP generation in CHO-K1/sGC cells, HTRF detection; conditions: for Emax: CHO-K1, percent activation relative to standard Compound A in CHO-K1/sGC cells, read-out: % Act.; for pEC50: inflection point (IP) of cGMP generation in CHO-K1/sGC cells, 4P fit, activity expressed as percentage of Compound A
T1 construct: expressed in transfected cells; host or cells: CHO-K1 (clone #7, CHO-K1/sGC)
T1 sequence (Q02108 1-690): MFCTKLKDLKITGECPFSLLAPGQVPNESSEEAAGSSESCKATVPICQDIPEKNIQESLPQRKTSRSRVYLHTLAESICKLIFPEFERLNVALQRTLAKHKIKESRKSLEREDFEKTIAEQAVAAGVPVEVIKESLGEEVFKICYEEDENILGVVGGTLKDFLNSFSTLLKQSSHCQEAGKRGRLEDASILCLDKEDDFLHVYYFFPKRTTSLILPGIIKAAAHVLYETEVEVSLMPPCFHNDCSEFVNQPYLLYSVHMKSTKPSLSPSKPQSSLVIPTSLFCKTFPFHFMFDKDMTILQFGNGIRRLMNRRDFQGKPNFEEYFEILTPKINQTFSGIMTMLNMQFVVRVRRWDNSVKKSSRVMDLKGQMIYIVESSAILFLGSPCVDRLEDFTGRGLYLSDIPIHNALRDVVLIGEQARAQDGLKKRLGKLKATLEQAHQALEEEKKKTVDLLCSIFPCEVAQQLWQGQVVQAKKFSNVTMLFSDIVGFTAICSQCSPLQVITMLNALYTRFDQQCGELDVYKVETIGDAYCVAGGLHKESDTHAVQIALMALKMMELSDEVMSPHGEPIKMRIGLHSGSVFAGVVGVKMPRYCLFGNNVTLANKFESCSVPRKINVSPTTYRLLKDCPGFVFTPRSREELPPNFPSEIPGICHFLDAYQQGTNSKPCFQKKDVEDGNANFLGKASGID
T1 sequence (Q02153 1-619): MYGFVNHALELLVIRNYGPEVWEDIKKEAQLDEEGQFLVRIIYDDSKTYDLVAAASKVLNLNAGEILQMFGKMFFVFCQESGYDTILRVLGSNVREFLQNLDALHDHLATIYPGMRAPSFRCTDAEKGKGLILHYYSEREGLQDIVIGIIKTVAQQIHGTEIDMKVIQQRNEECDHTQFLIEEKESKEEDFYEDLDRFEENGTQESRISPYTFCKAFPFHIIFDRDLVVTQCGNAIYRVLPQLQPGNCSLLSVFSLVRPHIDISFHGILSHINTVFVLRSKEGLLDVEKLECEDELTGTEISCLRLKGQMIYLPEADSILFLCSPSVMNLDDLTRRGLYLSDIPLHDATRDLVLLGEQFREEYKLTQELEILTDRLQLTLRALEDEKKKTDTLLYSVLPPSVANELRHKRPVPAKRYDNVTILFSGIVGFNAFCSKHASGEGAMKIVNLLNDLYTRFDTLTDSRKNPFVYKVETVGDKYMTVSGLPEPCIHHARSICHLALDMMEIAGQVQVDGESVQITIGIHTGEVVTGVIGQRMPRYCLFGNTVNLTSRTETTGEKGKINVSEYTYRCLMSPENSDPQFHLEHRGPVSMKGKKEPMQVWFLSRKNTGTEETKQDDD
Summary of the method: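 cGMP was quantified by HTRF after 1 hr, 37° C exposure of thawed CHO-K1 cells expressing sGC α1/β1 to compound, with or without 1 μM DETA-NO. IBMX (0.5 mM) blocked cGMP breakdown, and DMSO was 2.5% final. Percent of standard Compound A's maximal cGMP was fitted (4P) for inflection point.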

[1] = test system: Spontaneously hypertensive rats (SHR); assay: Acute efficacy in spontaneously hypertensive rats (SHR): telemetry blood pressure lowering after a single oral dose; assay type: in vivo, rat
Source text: Acute Efficacy in Spontaneously Hypertensive Rats (SHR)
Spontaneously hypertensive rats (SHR, male, Charles River) were implanted with DSI TA11PA-C40 telemetry device (Data Sciences, Inc., St. Paul, Minn.) under isoflurane or ketamine/metomidine anesthesia. The telemetry unit catheter was inserted into the descending aorta via the femoral artery and the telemetry device was implanted subcutaneously in the left flank area. Animals were allowed to recover from surgery for 14 days before the start of any studies. Blood pressure, heart rate, and activity signals from conscious, freely moving rats were recorded continuously for 30 seconds every 10 minutes. On the day prior to administration of compound, a single oral dose of vehicle (10% transcutol/20% Cremophor/70% water) was administered to all animals to establish baseline control data. The blood pressure lowering efficacy of compound (PO) or vehicle was evaluated following a single oral gavage. Data were collected as hourly averages, and changes in blood pressure were calculated by subtracting control baseline data on an hourly basis. Animals were maintained on normal diet with a 12 hour light-dark cycle.
Maximum peak decreases of systolic blood pressure (SBP) in SHR at a particular P.O. dose (mpk milligrams per kilogram) for the following representative compounds are provided. Category A=SBP in SHRs<20 mmHg; Category B=SBP in SHRs 20-40 mmHg; Category C=SBP in SHRs>40 mmHg

| SMILES | Emax (sGC α1/β1 heterodimer) | pEC50 (sGC α1/β1 heterodimer) | Maximum peak decrease of systolic blood pressure (SBP) in SHR, Cat. ([1]; P.O. 0.3 mpk) | Maximum peak decrease of systolic blood pressure (SBP) in SHR, Cat. ([1]; P.O. 3.0 mpk) | Maximum peak decrease of systolic blood pressure (SBP) in SHR, Cat. ([1]; P.O. 1.0 mpk) |
| --- | --- | --- | --- | --- | --- |
| CC1(c2ccc(OC(F)(F)F)cc2)C(=O)Nc2nc(-c3cn4ccnc4c(CCCC(F)(F)F)n3)nc(N)c21 (stereo not drawn) [Example 207B, 4-amino-5-methyl-2-(8-(4,4,4-trifluorobutyl)imidazo[1,2-a]pyrazin-6-yl)-5-(4-(trifluoromethoxy)phenyl)-5H-pyrrolo[2,3-d]pyrimidin-6(7H)-one] | 121% | 7.36 | B (Category B=SBP in SHRs 20-40 mmHg) | – | – |
| CCCc1ccc(C2(C)C(=O)Nc3nc(-c4cn5ccnc5c(CCC(F)(F)C(F)(F)F)n4)nc(N)c32)cn1 (stereo not drawn) [Example 250B, 4-amino-5-methyl-2-(8-(3,3,4,4,4-pentafluorobutyl)imidazo [1,2-a]pyrazin-6-yl)-5-(6-propylpyridin-3-yl)-5H-pyrrolo[2,3-d]pyrimidin-6(7H)-one] | 87% | 6.77 | – | A (Category A=SBP in SHRs<20 mmHg) | – |
| CC1(c2ccc(F)cn2)C(=O)Nc2nc(-c3cn4ccnc4c(CC4CCC4)n3)nc(N)c21 (stereo not drawn) [Example 115B, 4-amino-2-(8-(cyclobutylmethyl)imidazo [1,2-a]pyrazin-6-yl)-5-(5-fluoropyridin-2-yl)-5-methyl-5H-pyrrolo[2,3-d]pyrimidin-6(7H)-one] | 111% | 7.85 | C (Category C=SBP in SHRs>40 mmHg) | – | – |
| CC1(c2ccc(F)cn2)C(=O)Nc2nc(-c3cn4ccnc4c(Cc4ccc(F)cc4)n3)nc(N)c21 (stereo not drawn) [Example 69B, 4-Amino-2-(8-(4-fluorobenzyl)imidazo[1,2-a]pyrazin-6-yl)-5-(5-fluoropyridin-2-yl)-5-methyl-5H-pyrrolo[2,3-d]pyrimidin-6(7H)-one] | 116% | 8.05 | C (Category C=SBP in SHRs>40 mmHg) | – | – |
| CC1(c2cccc(F)c2)C(=O)Nc2nc(-c3cn4ccnc4c(CCC(F)(F)C(F)(F)F)n3)nc(N)c21 (stereo not drawn) [Example 231A, 4-amino-5-(3-fluorophenyl)-5-methyl-2-(8-(3,3,4,4,4-pentafluorobutyl)imidazo [1,2-a]pyrazin-6-yl)-5H-pyrrolo[2,3-d]pyrimidin-6(7H)-one] | 156% | 7.30 | A (Category A=SBP in SHRs<20 mmHg) | – | – |
| Cc1cn2cc(-c3nc(N)c4c(n3)NC(=O)C4(C)c3ccc(F)cn3)nc(CCC(F)(F)C(F)(F)F)c2n1 (stereo not drawn) [Example 172A, 4-amino-5-(5-fluoropyridin-2-yl)-5-methyl-2-(2-methyl-8-(3,3,4,4,4-pentafluorobutyl)imidazo [1,2-a]pyrazin-6-yl)-5H-pyrrolo[2,3-d]pyrimidin-6(7H)-one] | 124% | 6.20 | – | B (Category B=SBP in SHRs 20-40 mmHg) | – |
| CCCc1nc(-c2nc(N)c3c(n2)NC(=O)C3(C)c2ccc(Cl)cc2)cn2ccnc12 (single isomer, unassigned) [Example 2A, 4-Amino-5-(4-chlorophenyl)-5-methyl-2-(8-propylimidazo[1,2-a]pyrazin-6-yl)-5H-pyrrolo[2,3-d]pyrimidin-6(7H)-one] | 74% | 6.98 | – | – | C (Category C=SBP in SHRs>40 mmHg) |
| Nc1nc(-c2cn3ccnc3c(CCCC(F)(F)F)n2)nc2c1C(c1ccc(F)cn1)(C1CC1)C(=O)N2 (stereo not drawn) [Example 217A, 4-amino-5-cyclopropyl-5-(5-fluoropyridin-2-yl)-2-(8-(4,4,4-trifluorobutyl)imidazo[1,2-a]pyrazin-6-yl)-5H-pyrrolo[2,3-d]pyrimidin-6(7H)-one] | 82% | 6.54 | – | – | C (Category C=SBP in SHRs>40 mmHg) |
| CC1(c2ccc(C3CC3)nn2)C(=O)Nc2nc(-c3cn4ccnc4c(CCC(F)(F)C(F)(F)F)n3)nc(N)c21 (stereo not drawn) [Example 253B, 4-amino-5-(6-cyclopropylpyridazin-3-yl)-5-methyl-2-(8-(3,3,4,4,4-pentafluorobutyl)imidazo [1,2-a]pyrazin-6-yl)-5H-pyrrolo[2,3-d]pyrimidin-6(7H)-one] | 83% | 7.29 | – | – | A (Category A=SBP in SHRs<20 mmHg) |
| Nc1nc(-c2cn3ccnc3c(CCCC(F)(F)F)n2)nc2c1C(c1ccc(Cl)cn1)(C1CC1)C(=O)N2 (stereo not drawn) [Example 218B, 4-amino-5-(5-chloropyridin-2-yl)-5-cyclopropyl-2-(8-(4,4,4-trifluorobutyl)imidazo[1,2-a]pyrazin-6-yl)-5H-pyrrolo[2,3-d]pyrimidin-6(7H)-one] | 126% | 6.60 | – | – | C (Category C=SBP in SHRs>40 mmHg) |
| CCCCc1nc(-c2nc(N)c3c(n2)NC(=O)C3(c2ccc(OC(F)(F)F)cc2)C2CC2)cn2ccnc12 (stereo not drawn) [Example 346A] | 132% | 7.19 | – | – | B (Category B=SBP in SHRs 20-40 mmHg) |
| CCCCc1nc(-c2nc(N)c3c(n2)NC(=O)C3(c2ccc(Cl)cn2)C2CC2)cn2ccnc12 (stereo not drawn) [Example 336B, 4-amino-2-(8-butylimidazo[1,2-a]pyrazin-6-yl)-5-(5-chloropyridin-2-yl)-5-cyclopropyl-5H-pyrrolo[2,3-d]pyrimidin-6(7H)-one] | 131% | 7.66 | B (Category B=SBP in SHRs 20-40 mmHg) | – | – |
| CC1(c2ccc(Cl)c(F)c2)C(=O)Nc2nc(-c3cn4ccnc4cn3)nc(N)c21 (stereo not drawn) [Example 140B, 4-amino-5-(4-chloro-3-fluorophenyl)-2-(imidazo[1,2-a]pyrazin-6-yl)-5-methyl-5H-pyrrolo[2,3-d]pyrimidin-6(7H)-one] | 107% | 6.66 | B (Category B=SBP in SHRs 20-40 mmHg) | – | – |
| Nc1nc(-c2cn3ccnc3c(CCC(F)(F)C(F)(F)F)n2)nc2c1C(c1ccc(F)cc1)(C1CCC1)C(=O)N2 (single isomer, unassigned) [Example 344B, 4-amino-5-cyclobutyl-5-(4-fluorophenyl)-2-(8-(3,3,4,4,4-pentafluorobutyl)imidazo[1,2-a]pyrazin-6-yl)-5H-pyrrolo[2,3-d]pyrimidin-6(7H)-one] | 163% | 7.29 | A (Category A=SBP in SHRs<20 mmHg) | – | – |
| CCCc1nc(-c2nc(N)c3c(n2)NC(=O)C3(C)c2ccc(Cl)c(F)c2)cn2ccnc12 (stereo not drawn) [Example 124B, 4-amino-5-(4-chloro-3-fluorophenyl)-5-methyl-2-(8-propylimidazo[1,2-a]pyrazin-6-yl)-5H-pyrrolo[2,3-d]pyrimidin-6(7H)-one] | 103% | 7.47 | B (Category B=SBP in SHRs 20-40 mmHg) | – | – |
